Test results taken from US20170275287A1, “NOVEL N2, N4, N7, 6-TETRASUBSTITUTED PTERIDINE-2,4,7-TRIAMINE AND 2, 4, 6, 7-TETRASUBSTITUTED PTERIDINE COMPOUNDS AND METHODS OF SYNTHESIS AND USE THEREOF” (Janus Biotherapeutics, Inc., priority 2014, published 2017).
pIC50: −log10 of the molar value.

target: T1, TLR8 (Homo sapiens, UniProt Q9NR97); assay: TLR8 antagonist assay in human PBMCs (ORN1075, TNFα ELISA); assay type: cell-based; conditions: human PBMC, 0.5 μM ORN1075, TNFα readout
T1 construct: PBMCs were isolated from unpurified buffy coat from healthy human donors; host or cells: primary human PBMCs
T1 sequence (Q9NR97 27-1041): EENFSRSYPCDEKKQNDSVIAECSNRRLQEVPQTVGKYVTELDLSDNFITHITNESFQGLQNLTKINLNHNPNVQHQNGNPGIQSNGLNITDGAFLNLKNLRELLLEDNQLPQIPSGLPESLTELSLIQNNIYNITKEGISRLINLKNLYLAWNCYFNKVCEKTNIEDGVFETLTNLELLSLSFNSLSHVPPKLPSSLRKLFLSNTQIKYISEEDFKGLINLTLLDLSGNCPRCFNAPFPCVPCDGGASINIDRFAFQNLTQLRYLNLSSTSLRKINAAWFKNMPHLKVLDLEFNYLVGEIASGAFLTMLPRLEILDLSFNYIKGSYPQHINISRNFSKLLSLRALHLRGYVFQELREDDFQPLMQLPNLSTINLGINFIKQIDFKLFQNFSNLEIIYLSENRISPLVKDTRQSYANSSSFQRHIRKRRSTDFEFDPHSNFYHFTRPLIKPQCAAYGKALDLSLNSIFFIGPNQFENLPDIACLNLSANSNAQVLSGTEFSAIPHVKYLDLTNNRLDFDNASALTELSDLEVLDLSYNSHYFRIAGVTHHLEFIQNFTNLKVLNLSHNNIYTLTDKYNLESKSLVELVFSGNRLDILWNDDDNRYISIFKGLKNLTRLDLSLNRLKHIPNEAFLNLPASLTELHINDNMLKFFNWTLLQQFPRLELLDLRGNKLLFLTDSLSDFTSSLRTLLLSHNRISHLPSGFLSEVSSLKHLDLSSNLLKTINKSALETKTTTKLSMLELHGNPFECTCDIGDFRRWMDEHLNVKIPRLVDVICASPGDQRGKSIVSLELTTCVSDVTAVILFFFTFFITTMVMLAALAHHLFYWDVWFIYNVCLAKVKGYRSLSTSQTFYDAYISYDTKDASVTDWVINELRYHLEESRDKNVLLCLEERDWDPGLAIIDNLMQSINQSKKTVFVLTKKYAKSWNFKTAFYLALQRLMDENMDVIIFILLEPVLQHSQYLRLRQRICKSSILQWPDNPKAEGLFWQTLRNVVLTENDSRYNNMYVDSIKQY
Experimental: PBMCs were isolated from unpurified buffy coat from healthy human donors (Blood Research Components, LLC). For antagonist testing, cells were plated on 96-well U-bottom plates at 3×10^6 cells/ml. Antagonist compounds were added to cells in duplicate wells and titrated from 10 μM in 1:3 serial dilutions (8 antagonist concentrations tested in total). After approximately 30 minutes, cells were stimulated with agonist compound (see table 2 for agonist concentrations). After stimulation, cells were incubated overnight at 37° C. To increase the stability of the ssRNA, 3 μg/ml DOTAP (Roche) was added to ORN1075 agonist solutions. All dilutions were made in RPMI-1640 media (Sigma, cat.# R7388)+5% human male AB sera (Sigma, cat.# H4522)+1× Penicillin/Streptomycin solution (VWR, cat.#82026-730).
TLR activity was measured in PBMCs and neutrophils by ELISA using cytokine readouts specific for the TLR of interest.
TNFα was used as a readout for TLR8 activity in PBMCs and neutrophils stimulated with ORN1075 (See Table 3 for concentrations) using the ELISA Max™ Deluxe Set Human TNFα kit (BioLegend, cat.#430206). Supernatant from PBMCs was diluted 1:50 and from neutrophils at 1:3 in 1× Assay Diluent (BioLegend). ELISAs were run according to the kit product specifications. Absorbance at 450 nm was recorded using a Molecular Devices SpectraMax340PC plate reader. The IC50 for each antagonist was subsequently calculated following the method described below.
Raw ELISA datasets for each 96-well plate, consisting of absorbance readings at […], were first imported in Microsoft Excel to calculate the average absorbance for each standard or antagonist concentration. The averaged data was then imported into SigmaPlot v.11.0 where a standard curve was calculated and used to extrapolate the relative concentration of TLR readout (TNFα, IFNα, etc.) produced. The dose-response curve of each antagonist was then plotted with SigmaPlot v.11.0 on a Log scale. Concentrations of TLR readout were converted to a percentage relative to the average maximum concentration for that ELISA plate in Microsoft Excel. The IC50 for each antagonist was then determined with the SigmaPlot regression wizard using a 4-parameter Hill equation. Each antagonist was tested in a minimum of 3 independent experiments and IC50 results were compiled and averaged using Microsoft Excel.

Row | SMILES | pIC50
1 | COCCN1CCN(c2nc(NCCN3CCOCC3)c3nc(Cl)c(NCCN4CCOCC4)nc3n2)CC1 [JB6160] | 6.66
2 | CN1CCN(c2nc3nc(-c4ccccc4)nc(NCCN4CCOCC4)c3nc2OCCN2CCOCC2)CC1 [JB6116] | 6.18
3 | CCCCNc1nc(NCCN2CCOCC2)c2nc(SCC)c(NCCN3CCOCC3)nc2n1 [JB6185] | 6.87
4 | CN1CCN(c2nc(NCCN3CCOCC3)c3nc(Cl)c(NCCN4CCOCC4)nc3n2)CC1 [JB6121, 6-chloro-2-(4-methylpiperazin-1-yl)-N^4,N^7-bis(2-morpholinoethyl)pteridine-4,7-diamine] | 6.29
5 | CCOc1nc2c(NCCN3CCOCC3)nc(NCc3ccccc3)nc2nc1NCCN1CCOCC1 [JB6180] | 6.82
6 | CN1CCN(c2nc(NCCN3CCOCC3)c3ncc(-c4ccccc4)nc3n2)CC1 [JB6059] | 6.56

Continued by rising pIC50, values first:

Row | pIC50 | SMILES
7 | 5.14 | Clc1nc2c(NCCN3CCOCC3)nc(N3CCOCC3)nc2nc1NCCN1CCOCC1 [JB6147]
8 | 6.12 | CCCCNc1nc(NCCN2CCOCC2)c2nc(Cl)c(NCCN3CCOCC3)nc2n1 [JB6140]
9 | 6.58 | C[C@@H]1CN(CCNc2nc3nc(N4CCN(C)CC4)nc(NCCN4C[C@@H](C)O[C@@H](C)C4)c3nc2Cl)C[C@H](C)O1 [JB6143]
10 | 6.61 | Clc1nc2c(NCCN3CCOCC3)nc(NCc3ccccc3)nc2nc1NCCN1CCOCC1 [JB6172]
11 | 7.11 | CCOc1nc2c(NCCN3CCCC3)nc(-c3ccccc3)nc2nc1N1CCN(C)CC1 [JB6131]
